Series [1] deals with Morganella morganii IID 602. Nature of the series: Minimum inhibitory concentration, agar plate dilution method. It counts as cell-based. As to the method:
(§1) The antibacterial activity against various bacteria was measured by the agar plate dilution method (inoculum size 10^6 cells/ml), and the results are shown in the following Table 1.

The test system of series [2] is Staphylococcus aureus 209P-JC. The description is as above. It counts as cell-based. The following applies: read-out: Minimum Inhibitory Concentration. The method, then:
as §1

The next series has as its system Escherichia coli A13. Described as above. It counts as cell-based. The method, then:
as §1

Series [3] has as its system Escherichia coli NIJH JC-2. The description is as above. The series is classed as cell-based. The method, then: as §1
The subject of series [4] is Staphylococcus aureus K-1. The description is as above. It counts as cell-based. The method, then: as §1
The subject of series [5] is Klebsiella pneumoniae T-25. The series is described as above. It counts as cell-based. As to the method:
as §1

Another series in a line: in vivo. The following applies: rat, blood, 50 mg/kg in 5% gum arabic, male wister rats, bioassay. As to the method:
Three male wister rats (7 weeks old) for each group were administered orally with the test compounds, and the change of the concentration of the compound in blood was measured.
Dosage of the test compound:
50 mg/kg (suspended in 5% gum arabic)
Quantitative method: Bioasssay
(test bacterium: Escherichia coil SC507)

[6] abbreviates: Morganella morganii, IID602, read-out: Minimum Inhibitory Concentration.
The mark [7] stands for this setting: Escherichia coli, A13, read-out: Minimum Inhibitory Concentration.
Where [8] appears, read: Escherichia coli, NIJHJC2, read-out: Minimum Inhibitory Concentration.
Setting [9] is: Staphylococcus aureus, K1, read-out: Minimum Inhibitory Concentration.
The mark [10] stands for this setting: Klebsiella pneumoniae, T25, read-out: Minimum Inhibitory Concentration.
Setting [11] is: IID602, Morganella morganii IID 602, inoculum size 10^6 cells/ml, read-out: Minimum Inhibitory Concentration.
The mark [12] stands for this setting: Staphylococcus aureus 209P-JC, inoculum size 10^6 cells/ml.
Where [13] appears, read: Escherichia coli A13, inoculum size 10^6 cells/ml, read-out: Minimum Inhibitory Concentration.
The mark [14] stands for this setting: NIJHJC2, Escherichia coli NIJH JC-2, inoculum size 10^6 cells/ml, read-out: Minimum Inhibitory Concentration.
The mark [15] stands for this setting: T25, Klebsiella pneumoniae T-25, inoculum size 10^6 cells/ml, read-out: Minimum Inhibitory Concentration.

In brackets after ≈: the same amount, converted by molar mass. Counter-ions that a name gives are not always drawn. Like-named read-outs stand apart in the source and are kept apart here.

Take `COC(=O)/C=C\SC1=C(C(=O)[O-])N2C(=O)[C@@H](NC(=O)/C(=N\O)c3csc(N)n3)[C@H]2SC1.[Na+]`: the MIC in series [1] (setting [6]) was 0.05 µg/mL; in series [2] (Staphylococcus aureus, 209P), 0.2 µg/mL; in the series with Escherichia coli A13 (setting [7]), 6.25 µg/mL; in series [3] (setting [8]), no more than 0.025 µg/mL; in series [4] (setting [9]) it was 3.13 µg/mL; in series [5] (setting [10]) it was 0.2 µg/mL. This compound also yielded a concentration at 4 h in the series “in vivo” (Four Hours after oral administration) of 16900 ng/mL. This compound returned a concentration at 1 h in “in vivo” (One Hour after oral administration) of 11000 ng/mL. In the series “in vivo” (Two Hours after oral administration), this compound gave a concentration at 2 h of 14200 ng/mL.

Regarding `CC1=C(C(=O)O)N2C(=O)[C@@H](NC(=O)[C@H](N)c3ccccc3)[C@H]2SC1` [Test compound B, Cephalexin], the MIC was greater than 100 µg/mL in series [1] (setting [6]); 0.78 µg/mL (≈ 2.25 µM) in series [2] (Staphylococcus aureus, 209P); greater than 100 µg/mL in the series with Escherichia coli A13 (setting [7]); 3.13 µg/mL (≈ 9.01 µM) in series [3] (setting [8]); greater than 100 µg/mL in series [4] (setting [9]); 100 µg/mL (≈ 288 µM) in series [5] (setting [10]).

`C=CC1=C(C(=O)O)N2C(=O)[C@@H](NC(=O)/C(=N\OCC(=O)O)c3csc(N)n3)[C@H]2SC1` [Test compound C, Cefixime sodium salt]: the MIC in series [1] (setting [11]) is 0.39 µg/mL; in series [2] (setting [12]), 12.5 µg/mL; in the series with Escherichia coli A13 (setting [13]) it was greater than 100 µg/mL; in series [3] (setting [14]), 0.05 µg/mL; in series [4] (K1, Staphylococcus aureus K-1, inoculum size 10^6 cells/ml, read-out: Minimum Inhibitory Concentration), greater than 100 µg/mL; in series [5] (setting [15]) it was 12.5 µg/mL.

For `COC(=O)/C=C\SC1=C(C(=O)O)N2C(=O)[C@@H](NC(=O)/C(=N\OCC(=O)O)c3csc(N)n3)[C@H]2SC1` [Test compound D], the MIC in series [1] (setting [11]) is 0.25 µg/mL (≈ 0.46 µM); in series [2] (setting [12]) it was 6.25 µg/mL (≈ 11.5 µM); in the series with Escherichia coli A13 (setting [13]), greater than 100 µg/mL; in series [3] (setting [14]), 0.05 µg/mL (≈ 0.092 µM); in series [5] (setting [15]), 0.39 µg/mL (≈ 0.717 µM).

For the origin of these results see US4937332A, “Cephalosporin derivatives” (Taisho Pharmaceutical Co., Ltd., priority 1987, dated 1990).
